# In patent US8952024B2, “Herbicidal pyrimidone derivatives” (E I du Pont de Nemours and Company, priority 2009, dated 2015):
# Tests used:
# Assay in all cases: Test B pre-/postemergence plant response
# Type in all cases: in vivo
# [1] = system: Italian ryegrass (Lolium multiflorum)
# Procedure, shortened: (§1)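 Steps: sow seed in loam–sand soil and spray preemergence, or grow plants in peat-based medium to 1–4 leaves (2–18 cm) and spray postemergence; formulation is non-phytotoxic solvent plus surfactant; hold in greenhouse 13–15 days; score visually vs controls, 0 = no effect, 100 = complete control.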
# [2] = system: bermudagrass (Cynodon dactylon)
# Procedure, shortened: as §1
# corn (Zea mays) = system: corn (Zea mays)
# Procedure, shortened: as §1
# [3] = system: downy bromegrass (Bromus tectorum)
# Procedure, shortened: as §1
# [4] = system: giant foxtail (Setaria faberii)
# Procedure, shortened: as §1
# [5] = system: goosegrass (Eleusine indica)
# Procedure, shortened: as §1
# [6] = system: green foxtail (Setaria viridis)
# Procedure, shortened: as §1
# [7] = system: johnsongrass (Sorghum halepense)
# Procedure, shortened: as §1
# [8] = system: large crabgrass (Digitaria sanguinalis)
# Procedure, shortened: as §1
# [9] = system: morningglory (Ipomoea coccinea)
# Procedure, shortened: as §1
# [10] = system: ragweed (common ragweed, Ambrosia elatior)
# Procedure, shortened: as §1
# [11] = system: woolly cupgrass (Eriochloa villosa)
# Procedure, shortened: as §1
# [12] = system: yellow nutsedge (Cyperus esculentus)
# Procedure, shortened: as §1
# [13] = 250 g ai/ha, Preemergence, 0 to 100 scale
# [14] = Postemergence, 62 g ai/ha, scale 0 (no effect) to 100 (complete control), 13 to 15 days
# [15] = Postemergence, 125 g ai/ha, visual rating after 13 to 15 days, scale 0 (no effect) to 100 (complete control)
# [16] = Preemergence, 31 g ai/ha, scale 0 to 100 (0 no effect, 100 complete control)
# [17] = Preemergence, 125 g ai/ha, 0 to 100 scale
# [18] = Postemergence, 250 g ai/ha, scale 0 to 100
# [19] = Preemergence, 62 g ai/ha, scale 0 to 100 (0 no effect, 100 complete control)
# [20] = Postemergence, 31 g ai/ha, scale 0 to 100 (0 no effect, 100 complete control)
# [21] = 31 g ai/ha, postemergence, scale 0 to 100, 0 is no effect, 100 is complete control
# [22] = Postemergence, 250 g ai/ha, scale 0 to 100 (0 no effect, 100 complete control)
# [23] = Preemergence, 125 g ai/ha, scale 0 to 100, 0 no effect, 100 complete control
smiles,measurement,setting,value
Cc1c(Cl)cccc1-n1c(-c2ccccc2)ncc(C(=O)C2=C(O)CCCC2=O)c1=O [Compound 40],"Plant response rating, Ryegrass, Italian",[1]; [13],5
same,"Plant response rating, Ryegrass, Italian",[1]; [14],0
same,"Plant response rating, Ryegrass, Italian",[1]; [15],0
same,"Plant response rating, Ryegrass, Italian",[1]; [16],0
same,"Ryegrass, Italian plant response rating",[1]; [17],5
same,"Plant response rating, Bermudagrass",[2]; [13],100
same,"Plant response rating, Bermudagrass",[2]; [14],100
same,"Plant response rating, Bermudagrass",[2]; [15],100
same,Bermudagrass plant response rating,[2]; [18],100
same,"Plant response rating, Bermudagrass",[2]; [16],98
same,"Plant response rating, Bermudagrass",[2]; [19],100
same,Bermudagrass plant response rating,[2]; [17],100
same,"Plant response rating, Corn",corn (Zea mays); [13],0
same,"Plant response rating, Corn",corn (Zea mays); [20],80
same,"Plant response rating, Corn",corn (Zea mays); [14],80
same,"Plant response rating, Corn",corn (Zea mays); [15],85
same,Corn plant response rating,corn (Zea mays); [18],90
same,"Plant response rating, Corn",corn (Zea mays); [16],0
same,"Plant response rating, Corn",corn (Zea mays); [19],0
same,Corn plant response rating,corn (Zea mays); [17],0
same,"Plant response rating, Bromegrass, Downy",[3]; [13],10
same,"Plant response rating, Bromegrass, Downy",[3]; [20],45
same,"Plant response rating, Bromegrass, Downy",[3]; [14],50
same,"Plant response rating, Bromegrass, Downy",[3]; [15],70
same,"Bromegrass, Downy plant response rating",[3]; [18],85
same,"Plant response rating, Bromegrass, Downy",[3]; [16],0
same,"Plant response rating, Bromegrass, Downy",[3]; [19],0
same,"Bromegrass, Downy plant response rating",[3]; [17],5
same,"Plant response rating, Foxtail, Giant",[4]; [13],98
same,"Plant response rating, Foxtail, Giant",[4]; [20],100
same,"Plant response rating, Foxtail, Giant",[4]; [14],100
same,"Plant response rating, Foxtail, Giant",[4]; [15],100
same,"Foxtail, Giant plant response rating",[4]; [18],100
same,"Plant response rating, Foxtail, Giant",[4]; [16],10
same,"Plant response rating, Foxtail, Giant",[4]; [19],65
same,"Foxtail, Giant plant response rating",[4]; [17],80
same,"Plant response rating, Goosegrass",[5]; [13],100
same,"Plant response rating, Goosegrass",[5]; [14],90
same,"Plant response rating, Goosegrass",[5]; [15],95
same,Goosegrass plant response rating,[5]; [18],98
same,"Plant response rating, Goosegrass",[5]; [16],80
same,Goosegrass plant response rating,[5]; [17],100
same,"Plant response rating, Foxtail, Green",[6]; [13],100
same,"Plant response rating, Foxtail, Green",[6]; [20],90
same,"Plant response rating, Foxtail, Green",[6]; [14],95
same,"Plant response rating, Foxtail, Green",[6]; [15],95
same,"Foxtail, Green plant response rating",[6]; [18],95
same,"Plant response rating, Foxtail, Green",[6]; [16],0
same,"Plant response rating, Foxtail, Green",[6]; [19],85
same,"Foxtail, Green plant response rating",[6]; [17],85
same,"Plant response rating, Johnsongrass",[7]; [13],90
same,"Plant response rating, Johnsongrass",[7]; [15],75
same,Johnsongrass plant response rating,[7]; [18],100
same,"Plant response rating, Johnsongrass",[7]; [16],10
same,"Plant response rating, Johnsongrass",[7]; [19],80
same,Johnsongrass plant response rating,[7]; [17],85
same,"Plant response rating, Crabgrass, Large",[8]; [13],100
same,"Plant response rating, Crabgrass, Large",[8]; [20],85
same,"Plant response rating, Crabgrass, Large",[8]; [14],98
same,"Plant response rating, Crabgrass, Large",[8]; [15],100
same,"Crabgrass, Large plant response rating",[8]; [18],100
same,"Plant response rating, Crabgrass, Large",[8]; [16],70
same,"Plant response rating, Crabgrass, Large",[8]; [19],98
same,"Crabgrass, Large plant response rating",[8]; [17],100
same,"Plant response rating, Morningglory",[9]; [13],65
same,"Plant response rating, Morningglory",[9]; [15],75
same,"Plant response rating, Morningglory",[9]; [16],0
same,"Plant response rating, Morningglory",[9]; [19],0
same,Morningglory plant response rating,[9]; [17],0
same,"Plant response rating, Ragweed",[10]; [13],95
same,"Plant response rating, Ragweed",[10]; [14],98
same,"Plant response rating, Ragweed",[10]; [15],98
same,"Plant response rating, Ragweed",[10]; [16],75
same,Ragweed plant response rating,[10]; [17],90
same,"Plant response rating, Cupgrass, Woolly",[11]; [13],85
same,"Plant response rating, Cupgrass, Woolly",[11]; [20],90
same,"Plant response rating, Cupgrass, Woolly",[11]; [14],95
same,"Plant response rating, Cupgrass, Woolly",[11]; [15],98
same,"Cupgrass, Woolly plant response rating",[11]; [18],98
same,"Plant response rating, Cupgrass, Woolly",[11]; [16],0
same,"Plant response rating, Cupgrass, Woolly",[11]; [19],50
same,"Cupgrass, Woolly plant response rating",[11]; [17],70
same,"Plant response rating, Nutsedge, Yellow",[12]; [13],85
same,"Plant response rating, Nutsedge, Yellow",[12]; [14],35
same,"Plant response rating, Nutsedge, Yellow",[12]; [15],55
same,"Plant response rating, Nutsedge, Yellow",[12]; [16],10
same,"Nutsedge, Yellow plant response rating",[12]; [17],65
Cc1cc(-n2c(-c3ccccc3)ncc(C(=O)C3=C(O)CCCC3=O)c2=O)ccc1F [Compound 53],"Plant response rating, Ryegrass, Italian",[1]; [21],0
same,"Plant response rating, Ryegrass, Italian",[1]; [14],5
same,"Plant response rating, Ryegrass, Italian",[1]; [15],40
same,"Plant response rating, Ryegrass, Italian",[1]; [22],45
same,"Plant response rating, Ryegrass, Italian",[1]; [16],0
same,"Plant response rating, Ryegrass, Italian",[1]; [19],0
same,"Plant response rating, Ryegrass, Italian",[1]; [23],0
same,"Plant response rating, Bermudagrass",[2]; [21],90
same,"Plant response rating, Bermudagrass",[2]; [13],100
same,"Plant response rating, Bermudagrass",[2]; [14],95
same,"Plant response rating, Bermudagrass",[2]; [15],98
same,"Plant response rating, Bermudagrass",[2]; [22],98
same,"Plant response rating, Bermudagrass",[2]; [19],100
same,"Plant response rating, Bermudagrass",[2]; [23],100
same,"Plant response rating, Corn",corn (Zea mays); [21],55
same,"Plant response rating, Corn",corn (Zea mays); [13],20
same,"Plant response rating, Corn",corn (Zea mays); [14],80
same,"Plant response rating, Corn",corn (Zea mays); [15],80
same,"Plant response rating, Corn",corn (Zea mays); [22],85
same,"Plant response rating, Corn",corn (Zea mays); [16],0
same,"Plant response rating, Corn",corn (Zea mays); [19],0
same,"Plant response rating, Corn",corn (Zea mays); [23],0
same,"Plant response rating, Bromegrass, Downy",[3]; [21],35
same,"Plant response rating, Bromegrass, Downy",[3]; [13],30
same,"Plant response rating, Bromegrass, Downy",[3]; [14],50
same,"Plant response rating, Bromegrass, Downy",[3]; [15],55
same,"Plant response rating, Bromegrass, Downy",[3]; [22],60
same,"Plant response rating, Bromegrass, Downy",[3]; [16],0
same,"Plant response rating, Bromegrass, Downy",[3]; [19],0
same,"Plant response rating, Bromegrass, Downy",[3]; [23],5
same,"Plant response rating, Foxtail, Giant",[4]; [21],80
same,"Plant response rating, Foxtail, Giant",[4]; [13],100
same,"Plant response rating, Foxtail, Giant",[4]; [14],85
same,"Plant response rating, Foxtail, Giant",[4]; [15],90
same,"Plant response rating, Foxtail, Giant",[4]; [22],95
same,"Plant response rating, Foxtail, Giant",[4]; [16],5
same,"Plant response rating, Foxtail, Giant",[4]; [19],85
same,"Plant response rating, Foxtail, Giant",[4]; [23],100
same,"Plant response rating, Goosegrass",[5]; [21],75
same,"Plant response rating, Goosegrass",[5]; [13],100
same,"Plant response rating, Goosegrass",[5]; [14],80
same,"Plant response rating, Goosegrass",[5]; [15],80
same,"Plant response rating, Goosegrass",[5]; [22],85
same,"Plant response rating, Goosegrass",[5]; [16],98
same,"Plant response rating, Goosegrass",[5]; [19],100
same,"Plant response rating, Goosegrass",[5]; [23],100
same,"Plant response rating, Foxtail, Green",[6]; [21],95
same,"Plant response rating, Foxtail, Green",[6]; [13],98
same,"Plant response rating, Foxtail, Green",[6]; [14],100
same,"Plant response rating, Foxtail, Green",[6]; [15],100
same,"Plant response rating, Foxtail, Green",[6]; [22],100
same,"Plant response rating, Foxtail, Green",[6]; [16],60
same,"Plant response rating, Foxtail, Green",[6]; [19],60
same,"Plant response rating, Foxtail, Green",[6]; [23],98
same,"Plant response rating, Johnsongrass",[7]; [21],55
same,"Plant response rating, Johnsongrass",[7]; [13],75
same,"Plant response rating, Johnsongrass",[7]; [14],95
same,"Plant response rating, Johnsongrass",[7]; [15],95
same,"Plant response rating, Johnsongrass",[7]; [22],100
same,"Plant response rating, Johnsongrass",[7]; [16],10
same,"Plant response rating, Johnsongrass",[7]; [19],55
same,"Plant response rating, Johnsongrass",[7]; [23],60
same,"Plant response rating, Crabgrass, Large",[8]; [21],85
same,"Plant response rating, Crabgrass, Large",[8]; [13],100
same,"Plant response rating, Crabgrass, Large",[8]; [14],95
same,"Plant response rating, Crabgrass, Large",[8]; [15],95
same,"Plant response rating, Crabgrass, Large",[8]; [22],100
same,"Plant response rating, Crabgrass, Large",[8]; [16],75
same,"Plant response rating, Crabgrass, Large",[8]; [19],100
same,"Plant response rating, Crabgrass, Large",[8]; [23],100
same,"Plant response rating, Morningglory",[9]; [21],55
same,"Plant response rating, Morningglory",[9]; [14],75
same,"Plant response rating, Morningglory",[9]; [15],80
same,"Plant response rating, Morningglory",[9]; [22],98
same,"Plant response rating, Morningglory",[9]; [16],0
same,"Plant response rating, Morningglory",[9]; [19],20
same,"Plant response rating, Morningglory",[9]; [23],25
same,"Plant response rating, Ragweed",[10]; [21],80
same,"Plant response rating, Ragweed",[10]; [14],85
same,"Plant response rating, Ragweed",[10]; [15],95
same,"Plant response rating, Ragweed",[10]; [22],98
same,"Plant response rating, Ragweed",[10]; [16],65
same,"Plant response rating, Ragweed",[10]; [19],75
same,"Plant response rating, Ragweed",[10]; [23],85
same,"Plant response rating, Cupgrass, Woolly",[11]; [21],65
same,"Plant response rating, Cupgrass, Woolly",[11]; [13],95
same,"Plant response rating, Cupgrass, Woolly",[11]; [14],90
same,"Plant response rating, Cupgrass, Woolly",[11]; [15],95
same,"Plant response rating, Cupgrass, Woolly",[11]; [22],98
same,"Plant response rating, Cupgrass, Woolly",[11]; [16],0
same,"Plant response rating, Cupgrass, Woolly",[11]; [19],55
same,"Plant response rating, Cupgrass, Woolly",[11]; [23],85
same,"Plant response rating, Nutsedge, Yellow",[12]; [21],20
same,"Plant response rating, Nutsedge, Yellow",[12]; [14],65
same,"Plant response rating, Nutsedge, Yellow",[12]; [15],75
same,"Plant response rating, Nutsedge, Yellow",[12]; [22],75
same,"Plant response rating, Nutsedge, Yellow",[12]; [16],65
same,"Plant response rating, Nutsedge, Yellow",[12]; [19],80
same,"Plant response rating, Nutsedge, Yellow",[12]; [23],90
